Laboratory results from PubChem BioAssay AID330 (DTP/NCI, 2004).
Several values for one entry are separate records, joined by “and”; a condition that tells them apart may be missing. Equal values may be shown once. Toxic doses and inconclusive results are not listed. Square brackets hold non-standard residues; d marks the D form. Peptide text beside a SMILES is read from it. ξ: configuration not given here. ξI = CCC(C)C(N)C(=O)O

Tested on: P388 leukemia ip, CD2F1 mice, survival T/C
Assay: NCI In Vivo Anticancer Drug Screen. Data for tumor model P388 Leukemia (intraperitoneal) in CD2F1 (CDF1) mice
Conditions: endpoint: median survival time, higher = longer survival
In short: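 Mice carrying the transplanted tumor received test compound or vehicle. Survival was recorded in each group, and the value is the treated-group measurement divided by that of the vehicle-treated control group.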

[1] = dose: 6.25 mg/kg/injection, schedule: Q01DX005 (ip), vehicle: saline with Tween-80
[2] = dose: 12.5 mg/kg/injection, schedule: Q01DX005 (ip), vehicle: saline with Tween-80
[3] = dose: 50.0 mg/kg/injection, schedule: Q01DX009 (ip), vehicle: saline

With `COc1cc(/C=C/c2ccc(N(C)C)cc2)oc(=O)c1` the T/C (dose: 100.0 mg/kg/injection, schedule: Q04DX002 (ip), vehicle: Klucel (hydroxypropylcellulose) (HPC)) was 101 % of control, the T/C (dose: 200.0 mg/kg/injection, schedule: Q04DX002 (ip), vehicle: Klucel (hydroxypropylcellulose) (HPC)) was 98 % of control and the T/C (dose: 400.0 mg/kg/injection, schedule: Q04DX002 (ip), vehicle: Klucel (hydroxypropylcellulose) (HPC)) was 99 % of control.
For `O=C1C(Cl)=C(n2c3ccccc3c3ccccc32)C(=O)c2ccccc21`, the T/C [1] was 108 % of control and the T/C [2] was 104 % of control.
With `O.O.[Cl][Pt+2][Cl].[NH-]C1CC2CCC1C2.[NH-]C1CC2CCC1C2` (stereo not given) the T/C (dose: 33.0 mg/kg/injection, schedule: Q04DX003 (ip), vehicle: saline with Tween-80) was 154 % of control and the T/C (dose: 50.0 mg/kg/injection, schedule: Q04DX003 (ip), vehicle: saline with Tween-80) was 150 % of control.
`CCC(C)C(N)C(=O)NCC(=O)O` (stereo not given) (H-[ξI]-Gly-OH) was tested, and the T/C (dose: 60.0 mg/kg/injection, schedule: Q01DX005 (ip), vehicle: saline) was 96 % of control, the T/C (dose: 120.0 mg/kg/injection, schedule: Q01DX005 (ip), vehicle: saline) was 96 % of control and the T/C (dose: 240.0 mg/kg/injection, schedule: Q01DX005 (ip), vehicle: saline) was 96 % of control.
In the case of `COc1ccccc1/C=N/NC(=O)Cc1ccccc1`, the T/C (dose: 50.0 mg/kg/injection, schedule: Q01DX009 (ip), vehicle: saline with Tween-80) is reported as 101 % of control, the T/C (dose: 100.0 mg/kg/injection, schedule: Q01DX009 (ip), vehicle: saline with Tween-80) is reported as 91 % of control and the T/C (dose: 200.0 mg/kg/injection, schedule: Q01DX009 (ip), vehicle: saline with Tween-80) is reported as 93 % of control.
For `CCC1(O)CC(OC2CC(N(C)C)C(OC3CC(O)C(OC4CCC(=O)C(C)O4)C(C)O3)C(C)O2)c2c(cc3c(c2O)C(=O)c2c(O)ccc(O)c2C3=O)C1C(=O)OC` (stereo not given), the T/C (dose: 0.78 mg/kg/injection, schedule: Q01DX009 (ip), vehicle: saline with Tween-80) was 178 % of control, the T/C (dose: 1:4.0 dilution, schedule: Q01DX009 (ip), vehicle: saline) was 241 % of control and the T/C (dose: 1:8.0 dilution, schedule: Q01DX009 (ip), vehicle: saline) was 190 % of control.
For `O=C(N/N=C/c1ccccc1[O-])c1ccccc1O.O=C(N/N=C/c1ccccc1[O-])c1ccccc1O.[Mn+2]`, the T/C (dose: 50.0 mg/kg/injection, schedule: Q01DX005 (ip), vehicle: Klucel (hydroxypropylcellulose) (HPC)) was 100 % of control, the T/C (dose: 100.0 mg/kg/injection, schedule: Q01DX005 (ip), vehicle: Klucel (hydroxypropylcellulose) (HPC)) was 103 % of control and the T/C (dose: 200.0 mg/kg/injection, schedule: Q01DX005 (ip), vehicle: Klucel (hydroxypropylcellulose) (HPC)) was 103 % of control.
For `CCOC(=O)c1c(Nc2ccccc2O)oc2ccccc12`, the T/C (dose: 100.0 mg/kg/injection, schedule: Q04DX003 (ip), vehicle: Klucel (hydroxypropylcellulose) (HPC)) was 98 % of control, the T/C (dose: 200.0 mg/kg/injection, schedule: Q04DX003 (ip), vehicle: Klucel (hydroxypropylcellulose) (HPC)) was 92 % of control and the T/C (dose: 400.0 mg/kg/injection, schedule: Q04DX003 (ip), vehicle: Klucel (hydroxypropylcellulose) (HPC)) was 95 % of control.
With `OCC1OC(/C(N=Nc2ccccc2)=N\Nc2ccccc2)C(O)C1O` (stereo not given) the T/C [1] was 99 % of control, the T/C [2] was 89 % of control and the T/C (dose: 200.0 mg/kg/injection, schedule: Q01DX005 (ip), vehicle: saline with Tween-80) was 97 % of control.
For `OC1(C(O)(c2ccc(-c3ccccc3)cc2)c2ccc(-c3ccccc3)cc2)CC=CCC1` (stereo not given), the T/C (dose: 60.0 mg/kg/injection, schedule: Q01DX005 (ip), vehicle: saline with Tween-80) was 105 % of control, the T/C (dose: 120.0 mg/kg/injection, schedule: Q01DX005 (ip), vehicle: saline with Tween-80) was 92 % of control and the T/C (dose: 240.0 mg/kg/injection, schedule: Q01DX005 (ip), vehicle: saline with Tween-80) was 90 % of control.
With `CSC1(C)C(=O)Nc2cccc([N+](=O)[O-])c21` (stereo not given) the T/C (dose: 100.0 mg/kg/injection, schedule: Q01DX001 (ip), vehicle: saline with Tween-80) was 100 % of control, the T/C (dose: 200.0 mg/kg/injection, schedule: Q01DX001 (ip), vehicle: saline with Tween-80) was 93 % of control and the T/C (dose: 400.0 mg/kg/injection, schedule: Q01DX001 (ip), vehicle: saline with Tween-80) was 100 % of control.
In the case of `O=[N+]([O-])c1ccc(-c2nc3ccncc3[nH]2)cc1`, the T/C [3] is reported as 107 % of control, the T/C (dose: 100.0 mg/kg/injection, schedule: Q01DX009 (ip), vehicle: saline) is reported as 104 % of control and the T/C (dose: 200.0 mg/kg/injection, schedule: Q01DX009 (ip), vehicle: saline) is reported as 93 % of control.
In the case of `C1=CN2C(c3ccccc3)=NN(c3ccccc3)[C@@H]2c2ccccc21`, the T/C (dose: 1.87 mg/kg/injection, schedule: Q01DX005 (ip), vehicle: saline with Tween-80) is reported as 102 % of control, the T/C (dose: 3.75 mg/kg/injection, schedule: Q01DX005 (ip), vehicle: saline with Tween-80) is reported as 102 % of control and the T/C (dose: 7.5 mg/kg/injection, schedule: Q01DX005 (ip), vehicle: saline with Tween-80) is reported as 103 % of control and 93 % of control.
`NC(CO)C(=O)O.[Cl-].[Cl-].[Cl-].[Cl-].[Pt+2]` (stereo not given) was tested, and the T/C (dose: 6.25 mg/kg/injection, schedule: Q01DX009 (ip), vehicle: saline) was 114 % of control, the T/C (dose: 12.5 mg/kg/injection, schedule: Q01DX009 (ip), vehicle: saline) was 115 % of control and the T/C [3] was 159 % of control.
